Seven compounds from ChEMBL document CHEMBL1201862, “PubChem BioAssay data set” (2004) can be followed below.

Structures are written as SMILES.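 Five compound concentrations were applied to cells in 96-well plates for 48 hours; endpoints were derived by simple linear interpolation of the resulting dose-response curve. At the GI50, growth is halved.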 The source made the active and inactive calls. No stated cut-off is given here; in the data, active = GI50 up to about 1.1 µM and inactive = higher. Bounds are passed on as bounds.

What all share (test): growth of human tumour cells (NCI), 48 h
The test system of assay [1] is HOP-92.
Assay [2] relates to M14.
Assay [3] concerns KM-20L2.
Assay [4] relates to TK-10.
For assay [5], the system named is SR.
Assay [6] relates to COLO 205.
Assay [7] concerns M19-MEL.
The test system of assay [8] is ACHN.
In assay [9] the test system is LXFL 529.
Assay [10] deals with Malme-3M.
Assay [11] relates to XF498.
Assay [12] concerns A498.
In assay [13] the test system is SNB-78.
In assay [14] the test system is DLD-1.
Assay [15] has as its system RXF 631.
In assay [16] the test system is HCT-15.
The subject of assay [17] is HOP-18.
Assay [18] has as its system DMS-273.
Assay [19] has as its system MCF7.
Assay [20] relates to NCI/ADR-RES.

Consider `COC(=O)C1=C(C)N2CCCOC2(C)C(C(=O)OC)C1c1cccc(Cl)c1` (centres undefined), for which the GI50 is 19.1 µM (inactive) in [1]; 20 µM (inactive) in [2]; 24.4 µM (inactive) in [3]; 53 µM (inactive) in assay [4]; > 10 µM (inactive) in assay [5]; 17.3 µM (inactive) in assay [6]. The GI50 in assay [7] is 20.6 µM (inactive); in [8], 28.2 µM (inactive); in assay [9], 20 µM (inactive).

In the case of `O=S(O)c1cc(Cl)c(O)c(Cl)c1`, the GI50 in assay [10], in assay [11], in assay [12], in assay [2], in [4] and in assay [5] was > 100 µM (inactive) in each case. The GI50 in assay [13], in assay [14], in assay [15], in assay [7], in assay [8] and in assay [9] was > 100 µM (inactive) throughout.

For `COc1ccc(/C(C=O)=C(\Cl)c2ccc(OC)c(OC)c2)cc1`, the GI50 was > 100 µM in assay [16]; > 100 µM (inactive) in assay [10]; > 100 µM (inactive) in assay [17]; 15.4 µM (inactive) in assay [11]; 18.4 µM (inactive) in [12]; > 100 µM (inactive) in assay [2]. Also, the GI50 was > 100 µM (inactive) in assay [3]; > 100 µM (inactive) in [4]; 3.89 µM (inactive) in assay [5]; 23 µM (inactive) in assay [13]; 15.6 µM (inactive) in assay [14]; 49.2 µM (inactive) in assay [18]. The GI50 in assay [15], in assay [7], in [8] and in assay [9] was > 100 µM (inactive) in each case.

As to `CCCCC#CS(=O)(=O)C(F)(F)F`, the GI50 in [1] was 34.1 µM (inactive); in [16] it was 90.4 µM; in assay [10], > 100 µM (inactive); in assay [17], > 100 µM (inactive); in [11], 56.9 µM (inactive); in [19], 52.6 µM (inactive). Further, the GI50 in assay [12] is 44.9 µM (inactive); in assay [3], 81.5 µM (inactive); in assay [13], > 100 µM (inactive); in assay [6] it was > 75.7 µM (inactive); in assay [14] it was > 100 µM (inactive); in assay [18], 48 µM (inactive). Moreover, the GI50 in assay [20] was 47.3 µM (inactive).

On to `COC1/C=C\C=C(/C)C(=O)NC2=CC(=O)C=C(C2=O)C(OC)C(C)CC(OC)C(OC)C(C)/C=C(/C)C1OC(N)=O` (centres undefined), for which the GI50 was 2.04 µM (inactive) in assay [1]; 3.38 µM in [16]; 0.189 µM (active) in assay [10]; 0.29 µM (active) in [17]; 1.87 µM (inactive) in [11]; 1.28 µM (inactive) in [19]. In addition, the GI50 in assay [12] is 15.1 µM (inactive); in assay [3], 3.2 µM (inactive); in assay [13], 2.14 µM (inactive); in assay [6], 0.084 µM (active); in assay [14] it was 1.59 µM (inactive); in [18] it was 12 µM (inactive). Besides, the values for the GI50 in assay [20] and in assay [7] were 5.73 µM (inactive) and 2.2 µM (inactive), respectively.

For `COc1ccc2[nH]cc(/C=C(/C)c3ccncc3)c2c1`, the GI50 in assay [1] was 6.47 µM (inactive); in assay [16] it was 1.19 µM; in [17], > 100 µM (inactive); in assay [11], 10.7 µM (inactive); in assay [19] it was 3.47 µM (inactive); in assay [12], 5.07 µM (inactive). In addition, the GI50 in assay [6] is 3.1 µM (inactive); in assay [14] it was 4.52 µM (inactive); in assay [18] it was 1.57 µM (inactive); in [20], 2.94 µM (inactive); in assay [7], 3.72 µM (inactive).

As for `O=C1/C(=C/c2ccc(Cl)cc2)N=C(c2ccccc2)N1/N=C/c1ccccc1O`, the GI50 was 11.5 µM (inactive) in assay [1]; 30.9 µM in assay [16]; 1.98 µM (inactive) in assay [10]; 13.9 µM (inactive) in assay [19]; 2.84 µM (inactive) in [2]; 1.68 µM (inactive) in assay [4]. The values for the GI50 in [6], in assay [20] and in assay [8] were 16.3 µM (inactive), 18.2 µM (inactive) and 5.05 µM (inactive), respectively.
